Values quoted from earlier work as cited in paper PMC12677607, “Identification of a Pair of Linear or Cyclic Naturally Inspired Bifunctional Lipopeptide Antibiotics That Overcome Antimicrobial Resistance” (Advanced Science, 2025).

Assays:
[1] = set-up: method as in earlier work; conditions: Figure S20; cited from earlier work
[2] = set-up: method as in earlier work; conditions: Figure S20; cited from earlier work; remark: listed apart in the source
[3] = tested on: Gram negative and positive bacteria; set-up: method as in 2 sources, one per row (each row's own in cited_ref): ref 49 (a number printed in a supplementary file, which may have a reference list of its own: not looked up in the article's list) ||| ref 50 (a number printed in a supplementary file, which may have a reference list of its own: not looked up in the article's list); conditions: Figure S20, known paired peptides; cited from earlier work
[4] = tested on: Gram negative bacteria; set-up: method as in 2 sources, one per row (each row's own in cited_ref): ref 27 (a number printed in a supplementary file, which may have a reference list of its own: not looked up in the article's list) ||| ref 26 = [26]; PMID 24281661; doi:10.1038/ja.2013.121; 26 S. Kozuma , Y. Hirota‐Takahata , D. Fukuda , N. Kuraya , M. Nakajima , O , A , J. Antibiot. (Tokyo) 2014 , 67 , 237 . 24281661 10.1038/ja.2013.121; conditions: cited from earlier work; for MIC, anti-Gram negative activity: Figure S20, known paired peptides
Text: All 17 synAQUs were initially assayed for antimicrobial activity against four Gram‐negative bacteria, four Gram‐positive bacteria, and one fungal pathogen.

In the case of Bacaucin-1, the hemolytic activity [1] is listed as “No hemolytic activity”, the cytotoxic activity [2] is listed as “No cytotoxic activity” and the antibacterial activity [3] is listed as “Specific anti-bacterial activity against MR S A”.
For Brevicidine, the “MIC, anti-Gram negative activity” value [4] is given as 2 to 4 µg/mL.
For Laterocidine, the “MIC, anti-Gram negative activity” value [4] is listed as 2 to 4 µg/mL.
For pedopeptin B, the anti-Gram-negative activity ([4]; in words) is listed as “potent anti‐Gram‐negative activity”.
